From PubChem BioAssay (NCI)
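Following 48 hours of exposure in 96-well plates, responses at five concentrations were used to interpolate endpoints linearly. GI50: concentration for 50% inhibition of growth. Definition used: TGI = concentration required for complete inhibition of growth.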

How the values were obtained:
Assay in all cases: NCI anticancer screen, dose series, 48 h
CAKI-1 renal = test system: CAKI-1 renal
HL-60(TB) leukemia = test system: HL-60(TB) leukemia
M14 melanoma = test system: M14 melanoma
RXF 393 renal = test system: RXF 393 renal
SF-268 CNS = test system: SF-268 CNS
SF-539 CNS = test system: SF-539 CNS
SK-MEL-28 melanoma = test system: SK-MEL-28 melanoma
U251 CNS = test system: U251 CNS
EKVX NSCLC = test system: EKVX NSCLC
OVCAR-5 ovarian = test system: OVCAR-5 ovarian

Structure (SMILES) | TGI (CAKI-1 renal) [µM] | TGI (HL-60(TB) leukemia) [µM] | TGI (M14 melanoma) [µM] | TGI (RXF 393 renal) [µM] | TGI (SF-268 CNS) [µM] | TGI (SF-539 CNS) [µM] | TGI (SK-MEL-28 melanoma) [µM] | TGI (U251 CNS) [µM] | TGI (EKVX NSCLC) [µM] | TGI (OVCAR-5 ovarian) [µM] | GI50 (CAKI-1 renal) [µM] | GI50 (EKVX NSCLC) [nM] | GI50 (HL-60(TB) leukemia) [nM] | GI50 (M14 melanoma) [µM] | GI50 (OVCAR-5 ovarian) [µM] | GI50 (SF-268 CNS) [µM] | GI50 (SF-539 CNS) [µM] | GI50 (SK-MEL-28 melanoma) [µM] | GI50 (U251 CNS) [µM] | GI50 (RXF 393 renal) [µM]
C=CCC12CC(=O)C=C1CCC1(C2)OCCO1 (configuration not stated) | > 100 | > 100 | > 100 | > 100 | > 100 | > 100 | > 100 | > 100 |  |  |  |  |  |  |  |  |  |  |  | 
O=C1Cc2ccccc2N1c1c(Cl)cccc1Cl | > 100 | 50.8 | > 100 |  | > 100 | > 100 | > 100 | > 100 | > 100 | > 100 |  |  |  |  |  |  |  |  |  | 
CN(C)c1ccc(/C=C/c2ccnc3ccccc23)cc1N |  | 13.9 | 25.1 |  | 23.2 | 28.8 | 26.3 | 40.8 | 22.4 | 31.2 |  |  |  |  |  |  |  |  |  | 
CCC[CH2][Sn]1([CH2]CCC)[O]C(=O)c2cccc(OC)c2[O]1 | 0.775 | 0.98 | 1.56 |  | 0.841 | 1.42 | 0.747 | 0.751 | 2.7 | 2.9 | 0.0732 | 1310 | 106 | 0.422 | 1.55 | 0.194 | 0.387 | 0.234 | 0.237 | 
COc1cc2c(cc1OCCCCCn1c(-c3ccco3)nc3ccccc31)N=C[C@@H]1CCCN1C2=O | 0.0318 | 0.114 | 0.0236 |  |  | < 0.0472 | < 0.0149 | 11.2 | 1.59 |  | < 0.01 | < 11.5 | 23 | < 0.01 |  | < 0.01 | < 0.01 | < 0.01 | < 0.01 | 
Cn1cnc([N+](=O)[O-])c1SC1=NCCS1 | > 100 |  | > 100 |  | > 100 | > 100 | > 100 | > 100 | > 100 | > 100 |  |  |  |  |  |  |  |  |  | 
NC(N)=N/N=C(/c1ccccc1)c1ccc(Cl)cc1 | > 100 | 62.2 | 78.4 | 59.9 | > 100 | 53.5 | > 100 | > 100 |  | > 100 | 13.9 |  | 1340 | 12 | 47.3 | 8.44 | 18.8 | 8.03 | 9.4 | 12.3
O=C1CSC(=S)N1Cc1cccnc1 | 33.4 | 49 | 39.4 | 24.2 | 23.3 | 23.4 | 27.3 | 61.5 |  | 26.8 | 12.4 |  | 7270 | 15.3 | 13.2 | 5.75 | 6.33 | 11.4 | 23.5 | 6.11
